The text below walks through data of US8471005B2 (Cephalon, Inc., priority 2008, dated 2013).

In one test the target is T1, ALK (Homo sapiens, UniProt Q9UM73).
T1 construct: host or cells: baculovirus expression system
Put plainly: ALK Kinase Assay (ELISA/TRF, PLC-γ substrate). It is filed as biochemical. The conditions noted are these: ALK kinase inhibition, 1 μM ATP; read-out: ALK Potency. A digest of the protocol: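 PLC-γ coat 10 μg/mL in TBS; ALK 30 ng/ml added to start; 37° C, 15 min; Eu-N1 PT66 antibody detection (TRF). IC50: % inhibition vs log10 [cpd], variable-slope sigmoidal fit.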
A general note: In an ELISA, binding on a coated surface is turned into a signal by an enzyme label.

Another test concerns the target T2, JAK2 (Homo sapiens, UniProt O60674).
T2 construct: host or cells: baculovirus expression system
Briefly: Recombinant Human JAK2 Kinase Assay (TRF). It is filed as biochemical. As to conditions: JAK2 kinase inhibition, 0.2 μM ATP; read-out: JAK2 Potency. In short, it runs like this: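 TRF read-out: Eu-N1 PY100 anti-phosphotyrosine antibody detects product. Enzyme is baculovirus-expressed JAK2 at 15 ng/ml; substrate is a biotinyl 15-mer peptide bound to Neutravidin-coated wells. Buffer 20 mM HEPES pH 7.2, 0.2 μM ATP, 1 mM MnCl2, 0.1% BSA, 2.5% DMSO final; 20 min, RT.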

pIC50: −log10 of the molar value.

T2 sequence (O60674 whole entry): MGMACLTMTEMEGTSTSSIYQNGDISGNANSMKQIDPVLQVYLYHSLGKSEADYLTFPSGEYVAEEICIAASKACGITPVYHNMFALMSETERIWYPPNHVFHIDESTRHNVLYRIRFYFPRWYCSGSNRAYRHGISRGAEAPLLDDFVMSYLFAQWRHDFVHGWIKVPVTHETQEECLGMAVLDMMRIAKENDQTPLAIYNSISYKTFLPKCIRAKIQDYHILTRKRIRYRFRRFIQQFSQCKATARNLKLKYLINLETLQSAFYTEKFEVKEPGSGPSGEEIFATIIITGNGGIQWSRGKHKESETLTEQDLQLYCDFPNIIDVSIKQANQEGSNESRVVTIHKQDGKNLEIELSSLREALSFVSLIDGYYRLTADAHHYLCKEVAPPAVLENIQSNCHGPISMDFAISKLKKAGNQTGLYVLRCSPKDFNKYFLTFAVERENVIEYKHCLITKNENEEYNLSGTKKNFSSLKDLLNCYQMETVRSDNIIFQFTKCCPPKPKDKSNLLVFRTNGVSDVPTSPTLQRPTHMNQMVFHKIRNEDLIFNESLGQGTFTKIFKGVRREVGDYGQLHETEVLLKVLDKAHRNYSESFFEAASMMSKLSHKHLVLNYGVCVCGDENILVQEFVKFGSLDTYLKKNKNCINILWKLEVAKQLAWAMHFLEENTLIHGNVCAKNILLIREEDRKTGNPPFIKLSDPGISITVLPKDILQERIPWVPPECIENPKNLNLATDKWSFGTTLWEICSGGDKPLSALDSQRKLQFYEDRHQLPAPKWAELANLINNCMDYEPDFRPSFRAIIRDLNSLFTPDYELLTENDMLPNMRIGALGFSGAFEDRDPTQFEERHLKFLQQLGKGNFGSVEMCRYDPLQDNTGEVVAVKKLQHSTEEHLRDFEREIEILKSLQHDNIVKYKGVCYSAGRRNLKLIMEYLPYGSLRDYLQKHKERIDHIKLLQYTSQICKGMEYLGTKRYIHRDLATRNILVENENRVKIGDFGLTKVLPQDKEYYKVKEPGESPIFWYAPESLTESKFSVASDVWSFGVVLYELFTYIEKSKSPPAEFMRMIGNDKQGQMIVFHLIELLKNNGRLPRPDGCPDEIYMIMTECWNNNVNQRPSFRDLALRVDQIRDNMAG
T1 sequence (Q9UM73 19-1620): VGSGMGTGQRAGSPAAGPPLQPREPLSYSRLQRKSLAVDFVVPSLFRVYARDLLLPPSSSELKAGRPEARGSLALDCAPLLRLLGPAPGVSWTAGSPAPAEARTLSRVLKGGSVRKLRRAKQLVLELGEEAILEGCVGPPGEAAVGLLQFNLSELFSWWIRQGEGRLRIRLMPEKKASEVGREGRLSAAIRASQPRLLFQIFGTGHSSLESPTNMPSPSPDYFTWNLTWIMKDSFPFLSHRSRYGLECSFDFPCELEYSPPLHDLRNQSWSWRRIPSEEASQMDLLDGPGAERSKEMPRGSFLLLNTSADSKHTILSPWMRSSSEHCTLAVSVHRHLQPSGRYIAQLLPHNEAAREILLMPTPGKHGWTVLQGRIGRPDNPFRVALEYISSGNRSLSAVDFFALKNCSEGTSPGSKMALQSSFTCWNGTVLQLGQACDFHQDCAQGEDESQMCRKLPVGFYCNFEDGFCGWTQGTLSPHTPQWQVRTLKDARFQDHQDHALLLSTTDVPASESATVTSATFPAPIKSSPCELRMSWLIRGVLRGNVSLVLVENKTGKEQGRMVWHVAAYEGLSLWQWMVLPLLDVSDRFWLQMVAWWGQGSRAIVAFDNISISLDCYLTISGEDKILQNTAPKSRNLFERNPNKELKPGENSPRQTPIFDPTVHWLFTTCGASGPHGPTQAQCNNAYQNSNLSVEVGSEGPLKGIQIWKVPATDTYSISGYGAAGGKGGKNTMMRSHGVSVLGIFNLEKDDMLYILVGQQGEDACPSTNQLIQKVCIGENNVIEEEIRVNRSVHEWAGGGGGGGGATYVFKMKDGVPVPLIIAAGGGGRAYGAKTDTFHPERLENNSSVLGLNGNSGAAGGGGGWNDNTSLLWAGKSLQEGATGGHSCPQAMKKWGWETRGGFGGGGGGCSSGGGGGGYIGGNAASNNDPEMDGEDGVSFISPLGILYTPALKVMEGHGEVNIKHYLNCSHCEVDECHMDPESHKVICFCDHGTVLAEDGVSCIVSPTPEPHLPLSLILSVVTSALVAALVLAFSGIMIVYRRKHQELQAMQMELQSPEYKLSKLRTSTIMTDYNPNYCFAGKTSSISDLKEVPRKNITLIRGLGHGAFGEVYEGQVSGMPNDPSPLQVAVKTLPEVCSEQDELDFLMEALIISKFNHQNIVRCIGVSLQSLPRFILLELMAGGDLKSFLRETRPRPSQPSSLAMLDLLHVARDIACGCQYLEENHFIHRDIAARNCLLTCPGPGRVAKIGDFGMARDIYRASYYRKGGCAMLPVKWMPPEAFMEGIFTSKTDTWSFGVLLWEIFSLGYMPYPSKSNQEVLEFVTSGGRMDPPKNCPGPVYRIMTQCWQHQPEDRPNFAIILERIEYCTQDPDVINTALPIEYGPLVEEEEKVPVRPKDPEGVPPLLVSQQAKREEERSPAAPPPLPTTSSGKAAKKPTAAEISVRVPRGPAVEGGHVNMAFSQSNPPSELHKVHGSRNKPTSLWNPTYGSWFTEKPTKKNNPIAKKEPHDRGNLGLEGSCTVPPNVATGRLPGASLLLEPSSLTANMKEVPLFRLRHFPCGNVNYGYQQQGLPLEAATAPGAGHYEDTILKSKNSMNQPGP

Regarding `COc1ccc(-c2ccc3cnc(Nc4cc5c(cc4F)CCC(=O)N5)nn23)cn1` [Example 983, 6-Fluoro-7-[7-(6-methoxy-pyridin-3-yl)-pyrrolo[2,1-f][1,2,4]triazin-2-ylamino]-3,4-dihydro-1H-quinolin-2-one], the pIC50 on ALK is less than 5.00; at JAK2 it was more than 7.00.

In the case of `COc1ccc(-c2ccc3cnc(Nc4ccc5c(c4)CN(CC(N)=O)CC5)nn23)cn1` [Example 986, 2-{7-[7-(6-Methoxy-pyridin-3-yl)-pyrrolo[2,1-f][1,2,4]triazin-2-ylamino]-3,4-dihydro-1H-isoquinolin-2-yl}-acetamide], the figures for the pIC50 at ALK and at JAK2 were 5.00 to 6.00 and more than 7.00, respectively.

For the compound `COc1ccccc1-c1ccc2cnc(Nc3ccc4c(c3)CN(CC(N)=O)CC4)nn12` [Example 987, 2-{7-[7-(2-Methoxy-phenyl)-pyrrolo[2,1-f][1,2,4]triazin-2-ylamino]-3,4-dihydro-1H-isoquinolin-2-yl}-acetamide], the pIC50 at ALK is 6.00 to 7.00; at JAK2, more than 7.00.

Consider `COCCNc1cccc(-c2ccc3cnc(Nc4cccc(NC(C)=O)c4)nn23)c1` [Example 988, N-(3-{7-[3-(2-Methoxy-ethylamino)-phenyl]-pyrrolo[2,1-f][1,2,4]triazin-2-ylamino}-phenyl)-acetamide], for which the pIC50 on ALK was 5.00 to 6.00; on JAK2 it was more than 7.00.

Take `COc1cc2c(cc1Nc1ncc3ccc(-c4ccccc4OC)n3n1)CCN(C[C@@H](C)O)CC2` [Example 991, (R)-1-{7-Methoxy-8-[7-(2-methoxy-phenyl)-pyrrolo[2,1-f][1,2,4]triazin-2-ylamino]-1,2,4,5-tetrahydro-benzo[d]azepin-3-yl}-propan-2-ol]: the pIC50 on ALK was more than 7.00; at JAK2, 6.00 to 7.00.

Consider `COc1cc2c(cc1Nc1ncc3ccc(-c4ccccc4N(C)S(C)(=O)=O)n3n1)CCCC(N1CCOCC1)C2` (stereo not shown) [Example 993, N-{2-[2-(3-Methoxy-6-morpholin-4-yl-6,7,8,9-tetrahydro-5H-benzocyclohepten-2-ylamino)-pyrrolo[2,1-f][1,2,4]triazin-7-yl]-phenyl}-N-methyl-methanesulfonamide], for which the pIC50 was more than 7.00 at ALK and 6.00 to 7.00 at JAK2.

Regarding `COc1cc(N2CCN(c3ccccn3)CC2)ccc1Nc1ncc2ccc(-c3ccccc3OC)n2n1` [Example 994, [7-(2-Methoxy-phenyl)-pyrrolo[2,1-f][1,2,4]triazin-2-yl]-[2-methoxy-4-(4-pyridin-2-yl-piperazin-1-yl)-phenyl]-amine], the pIC50 at ALK and at JAK2 was 6.00 to 7.00 throughout.

`CCN1CCOC(c2ccc(Nc3ncc4ccc(-c5ccccc5N(C)S(C)(=O)=O)n4n3)cc2)C1` (stereo not shown) [Example 995, N-(2-{2-[4-(4-Ethyl-morpholin-2-yl)-phenylamino]-pyrrolo[2,1-f][1,2,4]triazin-7-yl}-phenyl)-N-methyl-methanesulfonamide]: the pIC50 at ALK and at JAK2 was more than 7.00 throughout.

Regarding `COc1cc2c(cc1Nc1ncc3ccc(-c4ccccc4N(C)S(C)(=O)=O)n3n1)CCC1(CCN(C)CC1)O2` [Example 996, N-(2-{2-[(7-methoxy-1′-methyl-3,4-dihydrospiro[chromene-2,4′-piperidin]-6-yl)amino]pyrrolo[2,1-f][1,2,4]triazin-7-yl}phenyl)-N-methylmethanesulfonamide], the pIC50 at ALK is more than 7.00; at JAK2, 5.00 to 6.00.

In the case of `COc1cc2c(cc1Nc1ncc3ccc(-c4ccccc4OC)n3n1)CCC1(CCN(C)CC1)O2` [Example 997, 7-methoxy-N-[7-(2-methoxyphenyl)pyrrolo[2,1-f][1,2,4]triazin-2-yl]-1′-methyl-3,4-dihydrospiro[chromene-2,4′-piperidin]-6-amine], the figures for the pIC50 at ALK and on JAK2 were more than 7.00 and 6.00 to 7.00, respectively.

For `COc1cc(OC2CCN(C)CC2)ccc1Nc1ncc2ccc(-c3ccccc3OC)n2n1` [Example 998, [2-Methoxy-4-(1-methyl-piperidin-4-yloxy)-phenyl]-[7-(2-methoxy-phenyl)-pyrrolo[2,1-f][1,2,4]triazin-2-yl]-amine], the pIC50 on ALK and at JAK2 was more than 7.00 each time.

On to `COc1cc(OC2CCN(C)CC2)ccc1Nc1ncc2ccc(-c3ccccc3N(C)S(C)(=O)=O)n2n1` [Example 999, N-(2-{2-[2-Methoxy-4-(1-methyl-piperidin-4-yloxy)-phenylamino]-pyrrolo[2,1-f][1,2,4]triazin-7-yl}-phenyl)-N-methyl-methanesulfonamide], for which the pIC50 is more than 7.00 at ALK and 6.00 to 7.00 on JAK2.

With `CC(C)(C)NS(=O)(=O)c1cccc(-c2ccc3cnc(Nc4cccc(OCCN5CCOCC5)c4)nn23)c1` [Example 1001, N-tert-Butyl-3-{2-[3-(2-morpholin-4-yl-ethoxy)-phenylamino]-pyrrolo[2,1-f][1,2,4]triazin-7-yl}-benzenesulfonamide], the pIC50 is 6.00 to 7.00 at ALK and more than 7.00 on JAK2.

For the compound `CS(=O)(=O)Nc1ccccc1-c1ccc2cnc(Nc3cccc(OCCN4CCOCC4)c3)nn12` [Example 1002, N-(2-{2-[3-(2-Morpholin-4-yl-ethoxy)-phenylamino]-pyrrolo[2,1-f][1,2,4]triazin-7-yl}-phenyl)-methanesulfonamide], the pIC50 is 5.00 to 6.00 on ALK and more than 7.00 at JAK2.

For the compound `COc1ccccc1-c1ccc2cnc(Nc3cccc(OCCN4CCOCC4)c3)nn12` [Example 1003, [7-(2-Methoxy-phenyl)-pyrrolo[2,1-f][1,2,4]triazin-2-yl]-[3-(2-morpholin-4-yl-ethoxy)-phenyl]-amine], the pIC50 on ALK was 6.00 to 7.00; on JAK2 it was more than 7.00.

For `Cn1cc(-c2ccc3cnc(Nc4cccc(OCCN5CCOCC5)c4)nn23)cn1` [Example 1004, [7-(1-Methyl-1H-pyrazol-4-yl)-pyrrolo[2,1-f][1,2,4]triazin-2-yl]-[3-(2-morpholin-4-yl-ethoxy)-phenyl]-amine], the pIC50 at ALK is 5.00 to 6.00; on JAK2, more than 7.00.

As for `CN1CCCC1COc1cccc(Nc2ncc3ccc(-c4cccc(S(=O)(=O)NC(C)(C)C)c4)n3n2)c1` (stereo not shown) [Example 1005, N-tert-Butyl-3-{2-[3-(1-methyl-pyrrolidin-2-ylmethoxy)-phenylamino]-pyrrolo[2,1-f][1,2,4]triazin-7-yl}-benzenesulfonamide], the pIC50 at ALK and on JAK2 was more than 7.00 in each case.

In the case of `COc1ccccc1-c1ccc2cnc(Nc3cccc(OCC4CCCN4C)c3)nn12` (stereo not shown) [Example 1006], the pIC50 on ALK and on JAK2 was more than 7.00 each time.

Regarding `CN1CCCC1COc1cccc(Nc2ncc3ccc(-c4cnn(C)c4)n3n2)c1` (stereo not shown) [Example 1007, [7-(1-Methyl-1H-pyrazol-4-yl)-pyrrolo[2,1-f][1,2,4]triazin-2-yl]-[3-(1-methyl-pyrrolidin-2-ylmethoxy)-phenyl]-amine], the pIC50 on ALK was 6.00 to 7.00; on JAK2, more than 7.00.

Regarding `COc1ccccc1-c1ccc2cnc(Nc3ccc(C4CCN(C(=O)OC(C)(C)C)C4)cc3)nn12` (stereo not shown) [Example 1008, 3-{4-[7-(2-Methoxy-phenyl)-pyrrolo[2,1-f][1,2,4]triazin-2-ylamino]-phenyl}-pyrrolidine-1-carboxylic acid tert-butyl ester], the pIC50 on ALK was 6.00 to 7.00; at JAK2 it was more than 7.00.
